One compound from patent US7754896B2, “Indol-alanine derivatives as selective S1P4-agonists” (Novartis AG, priority 2004, dated 2010) can be followed below.

This test deals with T1, S1P4 (Homo sapiens, UniProt O95977).
T1 construct: expressed in transfected cells
T1 sequence (O95977 1-384): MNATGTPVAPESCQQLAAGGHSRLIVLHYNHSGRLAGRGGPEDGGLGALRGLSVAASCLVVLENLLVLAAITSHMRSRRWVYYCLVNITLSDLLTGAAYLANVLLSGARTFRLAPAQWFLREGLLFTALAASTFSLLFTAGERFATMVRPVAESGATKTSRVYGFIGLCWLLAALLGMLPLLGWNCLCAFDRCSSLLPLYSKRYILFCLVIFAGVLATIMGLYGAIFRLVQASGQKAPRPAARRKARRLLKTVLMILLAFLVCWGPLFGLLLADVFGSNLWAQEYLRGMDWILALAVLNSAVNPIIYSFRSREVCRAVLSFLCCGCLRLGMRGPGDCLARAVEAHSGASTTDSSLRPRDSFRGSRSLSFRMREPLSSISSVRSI
Put plainly: GTPγS binding assay, S1P4. Particulars: CHO cells expressing S1P4. Format: biochemical. Here is the method: An expression vector for the human S1P4 gene (HSEDG4; GenBank Accession Number AJ000479) fused to the c-myc peptide tag at the C-terminus is obtained as described in Van Brocklyn et al. 2000, Blood 95(8), 2624. The encoding DNA for the S1P4-myc fusion protein is cloned in the mammalian expression vector pRc/CMV (Invitrogen), which confers G418 resistance for the selection of stable mammalian cells. The DNA sequence of the S1P4 insert is determined on both strands. […] The S1P4-myc cDNA is inserted into the pRc/CMV vector using HindIII/XbaI.
To develop stable cell lines expressing the c-myc tagged S1P4 receptor 5 μg of plasmid pRc/CMV myc-S1P4 is cut using restriction endonuclease PvuI, which cleaves the plasmid once. The linearized plasmid is then precipitated using a final concentration of 0.3M sodium acetate, pH5.0 and 66% ethanol. After centrifugation and washing, the DNA pellet is dissolved in 30 μl water. […] Individual clones that grew after the sort and selection procedure are expanded and one clone is finally selected based on the level of S1P4 mRNA expression determined by TaqMan quantitative PCR analysis.
Membrane proteins are prepared from wild type CHO-K1 and the CHO cell clones expressing human S1P4. […] The protein concentration is determined using the Bio Rad Protein Assay and human IgG as standard. […]
For orientation: GTPγS is a poorly hydrolysed GTP analogue; its binding reports G protein activation.

The term EC50 denotes the midpoint of the concentration-response curve. Higher therefore signals lower potency in that assay.

Regarding `NC(CNC(=O)c1cc2c(-c3ccccc3Cc3ccccc3)cccc2[nH]1)C(=O)O` (stereo not shown) [Example 2], the midpoint of the response, the EC50, lay at 0.25 µM. That is a sub-micromolar value.
